Results: patent publication US20230076310A1, “COMPOSITION USING NOVEL LACTOBACILLUS PLANTARUM KC3 STRAIN FOR PREVENTION OR TREATMENT OF IMMUNE IMPAIRMENT, RESPIRATORY INFLAMMATORY DISEASE, ALLERGY, AND ASTHMA AND USE THEREOF” (KT&G CORPORATION, priority 2020, published 2023)
Bridge positions count the residues as written; N and C are the ends. Square brackets hold non-standard residues; d marks the D form. Peptide text beside a SMILES is read from it. * marks the point of attachment. Ileψ(thiazoline)Cys = CC[C@H](C)[C@H](N)C1=N[C@H](C(=O)*)CS1; dOrn = NCCC[C@@H](N)C(=O)O

Key:
[1] = test system: Lactobacillus plantarum KC3; assay: Antibiotics resistance experiment (antibiotic strips on LSM solid medium); type: cell-based; settings: antibiotic strip on KC3 lawn, 37° C. for 24 hours
Protocol: In order to confirm antibiotics resistance level of the new lactic acid bacteria from the of the Lactobacillus plantarum KC3 the present disclosure, an experiment was performed as follows by applying the method described in the document ([1] Mathur, S. and R. Singh, Antibiotic resistance in food lactic acid bacteria—A review. Int. J. Food Microbiol 2005 105: 281-295); [2] European Food Safety Authority, Guidance on the assessment of bacterial susceptibility to antimicrobials of human and veterinary importance: EFSA Panel on Additives and Products or Substances used in Animal Feed (FEEDAP). The EFSA Journal 2012 2740:1-10. doi:10.2903/j.efsa.2012.2740).
To measure the antibiotics resistance level of the strain, an MIC test was carried out. Lactic acid bacteria that were inoculated into an MRS medium (DF0881-17-5, Difco) and cultured at 37° C. for 18 hours were spread on an LSM solid medium (90% iso-sensitest broth (CM0473, Oxoid), 10% MRS medium (DF0881-17-5, Difco), and 1.5% agar (214010, Difco)). Strips for each type of antibiotics, such as Amikacin (92018, Liofilchem srl), Gentamycin (92009, Liofilchem srl), Kanamycin (92034, Liofilchem srl), Streptomycin (92112, Liofilchem srl), Penicillin-G (92102, Liofilchem srl), Oxacillin (92015, Liofilchem srl), Ampicillin (920030, Liofilchem srl), Bacitracin (92019, Liofilchem srl), Rifampicin (92001, Liofilchem srl), Polymyxin B (92004, Liofilchem srl), Chloramphenico I (92075, Liofilchem srl), Vancomycin (92057, Liofilchem srl), and the like, were put on the medium, and the bacteria were grown at 37° C. for 24 hours.
In Table 4, R indicates resistance and represents that the size of an inhibition zone is about 0 mm; IS indicates medium resistance and represents that the size of an inhibition zone is in a range of about 1 mm to about 5 mm; and S indicates […] and represents that the size of an inhibition zone is greater than about 5 mm.

[2] = test system: croton oil-induced mouse ear edema; assay: Croton oil-induced mouse ear edema test; type: in vivo, ICR mice; settings: 10 mg/kg BW oral, about 4 hours after 2.5% croton oil
Protocol: To confirm anti-inflammatory effect of the probiotic lactic acid bacteria (Lactobacillus plantarum KC3, KC3) on ear edema, an experiment was performed according to the croton oil-induced mouse ear edema method by applying the method described in the document (Dong Wook Kim, Kun Ho Son, Hyeun Wook Chang, KiHwan Bae and Sam Sik Kang, Arch Pharm Res., 2003, 3, pp 232-236).
To evaluate anti-inflammatory activity of the samples of the Example above, a croton oil-induced mouse ear edema test was carried out, and results thereof were obtained by measuring the ear thickness of the samples as shown in Table 8. […]
About 1 hour after administration, 2.5% croton oil (C0421 available from TCI Company, […]) dissolved in acetone was applied evenly to the inside and outside of the right ear of each mice to induce ear edema. […] Then, the degree of edema in the ears of the mice was measured according to variations in speed by measuring the thickness of both ears using a thickness gauge (Digimatic thickness gauge, 547-301, Mitutoyo, Japan). Here, based on the degree of and the inhibition rate (%) was calculated based on the degree of edema of the mice in the negative control group (0.5% sodium carboxymethyl cellulose (CMC), Sigma-Aldrich 419273), inhibition rates (%) were calculated, and results thereof are shown in Table 8 below.

For `CC1(C)S[C@@H]2[C@H](NC(=O)Cc3ccccc3)C(=O)N2[C@H]1C(=O)O` [Penicillin-G], the “Antibiotic resistance (class)” value [1] was “IS (IS indicates medium resistance and represents that the size of an inhibition zone is in a range of about 1 mm to about 5 mm)” and the “Antibiotic resistance, size of inhibition zone” value [1] was “(5 mm)”.

In the case of Neomycin, the “Antibiotic resistance (class)” value [1] is reported as “IS (IS indicates medium resistance and represents that the size of an inhibition zone is in a range of about 1 mm to about 5 mm)” and the “Antibiotic resistance, size of inhibition zone” value [1] is reported as “(3 mm)”.

In the case of `CC[C@H](C)[C@H](N)C1=N[C@H](C(=O)N[C@@H](CC(C)C)C(=O)N[C@H](CCC(=O)O)C(=O)N[C@H](C(=O)N[C@H]2CCCCNC(=O)[C@H](CC(N)=O)NC(=O)[C@@H](CC(=O)O)NC(=O)[C@H](Cc3cnc[nH]3)NC(=O)[C@@H](Cc3ccccc3)NC(=O)[C@H]([C@@H](C)CC)NC(=O)[C@@H](CCCN)NC2=O)[C@@H](C)CC)CS1` [Bacitracin] ({Ileψ(thiazoline)Cys}-L[dE]IK[dOrn]I[dF]H[dD]N; lactam 4-C), the “Antibiotic resistance (class)” value [1] is reported as “S (S indicates resistance and represents that the size of an inhibition zone is greater than about 5 mm)” and the “Antibiotic resistance, size of inhibition zone” value [1] is reported as “(7 mm)”.

In the case of Polymyxin B, the “Antibiotic resistance (class)” value [1] is reported as “R (R indicates resistance and represents that the size of an inhibition zone is about 0 mm)” and the “Antibiotic resistance, size of inhibition zone” value [1] is reported as “(0 mm)”.

With `CC1(C)S[C@@H]2[C@H](NC(=O)[C@H](N)c3ccccc3)C(=O)N2[C@H]1C(=O)O` [Ampicillin] the “Antibiotic resistance (class)” value [1] was “S (S indicates resistance and represents that the size of an inhibition zone is greater than about 5 mm)” and the “Antibiotic resistance, size of inhibition zone” value [1] was “(14 mm)”.

`Cc1onc(-c2ccccc2)c1C(=O)N[C@@H]1C(=O)N2[C@@H]1SC(C)(C)[C@@H]2C(=O)O` [Oxacillin] was tested, and the “Antibiotic resistance (class)” value [1] was “IS (IS indicates medium resistance and represents that the size of an inhibition zone is in a range of about 1 mm to about 5 mm)” and the “Antibiotic resistance, size of inhibition zone” value [1] was “(2 mm)”.

In the case of `CO[C@H]1/C=C/O[C@@]2(C)Oc3c(C)c(O)c4c(O)c(c(/C=N/N5CCN(C)CC5)c(O)c4c3C2=O)NC(=O)/C(C)=C\C=C\[C@H](C)[C@H](O)[C@@H](C)[C@@H](O)[C@@H](C)[C@H](OC(C)=O)[C@@H]1C` [Rifampicin], the “Antibiotic resistance (class)” value [1] is reported as “S (S indicates resistance and represents that the size of an inhibition zone is greater than about 5 mm)” and the “Antibiotic resistance, size of inhibition zone” value [1] is reported as “(7 mm)”.

`CN[C@H](CC(C)C)C(=O)N[C@H]1C(=O)N[C@@H](CC(N)=O)C(=O)N[C@H]2C(=O)N[C@H]3C(=O)N[C@H](C(=O)N[C@H](C(=O)O)c4cc(O)cc(O)c4-c4cc3ccc4O)[C@H](O)c3ccc(c(Cl)c3)Oc3cc2cc(c3O[C@@H]2O[C@H](CO)[C@@H](O)[C@H](O)[C@H]2O[C@H]2C[C@](C)(N)[C@H](O)[C@H](C)O2)Oc2ccc(cc2Cl)[C@H]1O` [Vancomycin] was tested, and the “Antibiotic resistance (class)” value [1] was “R (R indicates resistance and represents that the size of an inhibition zone is about 0 mm)” and the “Antibiotic resistance, size of inhibition zone” value [1] was “(0 mm)”.

`COc1ccc2c(c1)c(CC(=O)O)c(C)n2C(=O)c1ccc(Cl)cc1` [Indomethacin] was tested, and the “Inhibition rate of ear edema (% of control)” value [2] was 25.6 ± 2.2 % of control and the “Thickness (ear)” value ([2]; edema control 0.806 ± 0.068) was 0.684 ± 0.054.

Gentamycin was tested, and the “Antibiotic resistance (class)” value [1] was “IS (IS indicates medium resistance and represents that the size of an inhibition zone is in a range of about 1 mm to about 5 mm)” and the “Antibiotic resistance, size of inhibition zone” value [1] was “(3 mm)”.

`[H]/N=C(/N)N[C@H]1[C@H](O)[C@@H](O)[C@H](O[C@@H]2O[C@@H](C)[C@](O)(C=O)[C@H]2O[C@@H]2O[C@@H](CO)[C@H](O)[C@@H](O)[C@@H]2NC)[C@@H](N/C(N)=N\[H])[C@@H]1O` [Streptomycin] was tested, and the “Antibiotic resistance (class)” value [1] was “R (R indicates resistance and represents that the size of an inhibition zone is about 0 mm)” and the “Antibiotic resistance, size of inhibition zone” value [1] was “(0 mm)”.

For `CCC[C@@H]1C[C@@H](C(=O)N[C@@H]([C@H]2O[C@H](SC)[C@H](O)[C@@H](O)[C@H]2O)[C@@H](C)O)N(C)C1` [Lincomycin], the “Antibiotic resistance (class)” value [1] was “S (S indicates resistance and represents that the size of an inhibition zone is greater than about 5 mm)” and the “Antibiotic resistance, size of inhibition zone” value [1] was “(10 mm)”.

`NCC[C@H](O)C(=O)N[C@@H]1C[C@H](N)[C@@H](O[C@H]2O[C@H](CN)[C@@H](O)[C@H](O)[C@H]2O)[C@H](O)[C@H]1O[C@H]1O[C@H](CO)[C@@H](O)[C@H](N)[C@H]1O` [Amikacin] was tested, and the “Antibiotic resistance (class)” value [1] was “IS (IS indicates medium resistance and represents that the size of an inhibition zone is in a range of about 1 mm to about 5 mm)” and the “Antibiotic resistance, size of inhibition zone” value [1] was “(1 mm)”.

In the case of `NC[C@H]1O[C@H](O[C@H]2[C@H](O)[C@@H](O[C@H]3O[C@H](CO)[C@@H](O)[C@H](N)[C@H]3O)[C@H](N)C[C@@H]2N)[C@H](O)[C@@H](O)[C@@H]1O` [Kanamycin], the “Antibiotic resistance (class)” value [1] is reported as “R (R indicates resistance and represents that the size of an inhibition zone is about 0 mm)” and the “Antibiotic resistance, size of inhibition zone” value [1] is reported as “(0 mm)”.

For `O=C(N[C@H](CO)[C@H](O)c1ccc([N+](=O)[O-])cc1)C(Cl)Cl` [Chloramphenicol], the “Antibiotic resistance (class)” value [1] was “S (S indicates resistance and represents that the size of an inhibition zone is greater than about 5 mm)” and the “Antibiotic resistance, size of inhibition zone” value [1] was “(10 mm)”.

With `CO[C@@H]1[C@@H](OC(N)=O)[C@@H](O)[C@H](Oc2ccc3c(O)c(NC(=O)c4ccc(O)c(CC=C(C)C)c4)c(=O)oc3c2C)OC1(C)C` [Novabiocin] the “Antibiotic resistance (class)” value [1] was “S (S indicates resistance and represents that the size of an inhibition zone is greater than about 5 mm)” and the “Antibiotic resistance, size of inhibition zone” value [1] was “(7 mm)”.
